Measurements reported in patent US8399609B2, “Treating or preventing extracellular matrix build-up” (RegeneRx Biopharmaceuticals, Inc., priority 2004, dated 2013).

Test system: Human Blood Platelets
Experiment: Platelet aggregation assay (Payton duo-channel aggregometer), PAF-16-induced aggregation in platelet-rich plasma
Format: cell-based
Conditions: agonist PAF-16 20 ng/ml
Experimental: Platelet Aggregation Assay
The inhibitory effects of Tβ4 on platelet aggregation were tested using a Payton duo-channel aggregometer. This aggregometer produces a plot of % light transmission (directly proportional to % aggregation) vs. time.
For each experiment, one 9 ml blood sample was drawn from a fasting, non-smoking, healthy subject into a propylene tube containing 1 ml of 3.8% sodium-citrate (anti-coagulant). This blood sample was then diluted with 2 ml of phosphate buffer (phosphate-buffer saline with 11 mM glucose and 3 mM sodium citrate). Dilution with phosphate buffer aids in stabilization of the platelet environment and retention of platelet activity for a longer period of time. Platelet-rich plasma (PRP) was prepared by centrifuging the blood for 3 min at 2300 RPM. After removal of PRP, the volume of the remaining blood was brought up to 10 ml by adding phosphate buffer, and the sample was once again centrifuged for the preparation of platelet-poor (PPP). To obtain PPP, we centrifuged the blood for 10 min at 2800 RPM.
Platelet aggregation tests were performed by recording % light transmission (vs. time) through samples of PRP. Before each assay, the aggregometer was adjusted such that PRP gave no light transmission. For aggregation assays, duplicate samples (0.4 ml) of PRP were incubated with 1 mM CaCl2 (to restore the physiologic concentration of Ca^++) for 1 min at 37° C. Different amounts of Tβ4, ranging for 20 to 300 ng, dissolved in 30 μl of distilled/deionized water, were added to each assay. The mixture was then incubated and stirred for an additional 2 min before aggregation was induced with an agonist.
Among the agonists used in the experiments were ADP, epinephrine, arachidonic acid, thrombin, collagen (Sigma Chemicals), and PAF (Platelet-activating factor)-16 (from Calbiochem). Concentrations of these reagents were 1 μm, 10 μm, 100 μg/ml, 0.2 NIH units, 0.05 mg/ml, and 20 ng/ml respectively. Two control assays were run at the beginning and end of each experiment. An assay without Tβ4 (but with an equivalent volume of H2O) constitutes a control, and the % light transmission produced by each control is assigned a value of % 100 for each experiment. For the measurement of % inhibition caused by Tβ4, light transmission in a Tβ4 assay was compared to the average light transmission in the start and end controls, using the following formula: […]

thymosin beta 4 (SDKPDMAEIEKFDKSKLKKTETQEKNPLPSKETIEQEKQAGES; Thymosin beta-4; UniProt P62328 2-44, looked up) [Tβ4]
Average % Inhibition of Aggregation (20 ng Tβ4 per assay (0.4 ml PRP)): 50% | Average % Inhibition of Aggregation (40 ng Tβ4 per assay (0.4 ml PRP)): 90% | Average % Inhibition of Aggregation (60 ng Tβ4 per assay (0.4 ml PRP)): 100% | Average % Inhibition of Aggregation (80 ng Tβ4 per assay (0.4 ml PRP)): 95% | Average % Inhibition of Aggregation (100 ng Tβ4 per assay (0.4 ml PRP)): 92% | Average % Inhibition of Aggregation (300 ng Tβ4 per assay (0.4 ml PRP)): 84%
